{
  "source": "patent US10023565B2",
  "about": "“N,N′ substituted piperidinamine compounds, and preparation method and usage thereof” (Institute of Pharmacology and Toxicology Academy of …, priority 2013, dated 2018)",
  "test_system": "mice",
  "assay": "Acute toxicity experiment with single intragastric administration to mice",
  "format": "in vivo",
  "conditions": "for Quantity of animals (survival/death): 14 d observation",
  "method": "Acute toxicity experiment with single intragastric administration to mice of the compound of Example 36 according to the following method\n(2) Preparation of test sample: a suitable amount of sample was weighed, and suspended in 0.5% CMC-Na, followed by vortex vibration till uniform. The resulting suspension was fully vibrated before administration.\nAccording to the results of pre-experiment, experiment was conducted using Fixed-dose procedure. 70 mice were randomly divided into 7 groups, 10 mice each group, male and female in half. The administration doses were respectively: 1555, 1296, 1080, 900, 750, 625 and 520 mg/kg, and observation of the animals after administration continued for 14 days.\nObservation was conducted once 5 min, 10 min, 20 min, 30 min, 1 h, 2 h, 4 h, 6 h, 8 h, 12 h, 18 h, 1 d, 2 d, 3 d, 7 d and 14 d respectively after administration, to record the animal death and toxic response.\nLD50 was calculated by statistical analysis using SAS software.\n2. Calculation of LD50 Using Bliss Method",
  "data": [
    {"smiles": "CSc1nccc(N2CCC(N(C)Cc3ccc(C#N)cc3)CC2)n1", "note": "[Example 36, N-methyl-N-(4-cyanobenzyl)-N-[1-(2-methylthiopyrimidin-4-yl)piperidin-4-yl]amine]", "values": [
      {"measurement": "Quantity of animals (survival/death)", "setting": "520 mg/kg, Female", "value": "5/0"},
      {"measurement": "Quantity of animals (survival/death)", "setting": "520 mg/kg, Male", "value": "5/0"},
      {"measurement": "Quantity of animals (survival/death)", "setting": "625 mg/kg, Female", "value": "5/0"},
      {"measurement": "Quantity of animals (survival/death)", "setting": "625 mg/kg, Male", "value": "4/1"},
      {"measurement": "Quantity of animals (survival/death)", "setting": "750 mg/kg, Female", "value": "2/3"},
      {"measurement": "Quantity of animals (survival/death)", "setting": "750 mg/kg, Male", "value": "4/1"},
      {"measurement": "Quantity of animals (survival/death)", "setting": "900 mg/kg, Female", "value": "2/3"},
      {"measurement": "Quantity of animals (survival/death)", "setting": "900 mg/kg, Male", "value": "3/2"},
      {"measurement": "Quantity of animals (survival/death)", "setting": "1080 mg/kg, Female", "value": "2/3"},
      {"measurement": "Quantity of animals (survival/death)", "setting": "1080 mg/kg, Male", "value": "0/5"},
      {"measurement": "Quantity of animals (survival/death)", "setting": "1296 mg/kg, Female", "value": "0/5"},
      {"measurement": "Quantity of animals (survival/death)", "setting": "1296 mg/kg, Male", "value": "1/4"},
      {"measurement": "first animal death, time after administration", "setting": "1555 mg/kg dose group", "value": 5, "unit": "min"},
      {"measurement": "Quantity of animals (survival/death)", "setting": "1555 mg/kg, Female", "value": "0/5"},
      {"measurement": "Quantity of animals (survival/death)", "setting": "1555 mg/kg, Male", "value": "0/5"},
      {"measurement": "gross anatomical examination", "setting": "animals dead during or killed at end of the experiment", "value": "No obvious abnormality was found"},
      {"measurement": "survival of the dose group", "setting": "mouse, in vivo", "value": "all survived"},
      {"measurement": "clinical manifestations of animal poisoning", "setting": "single intragastric administration, 520-1555 mg/kg", "value": "muscle tremors, convulsions, eye closed, curled up into a ball, erected hair, reduced activity, loss of appetite"},
      {"measurement": "LD50 and 95% confidence limit", "setting": "single intragastric administration, mice, Bliss method, SAS", "value": "869.0 (776.5-969.4) mg/kg"}
    ]}
  ]
}
